{"source": "patent US20250082640A1", "about": "“Therapeutics for Hyponatremia and Polycystic Kidney Disease” (University of Cincinnati, priority 2021, published 2025)", "key": {"Male Sprague Dawley rats": {"system": "Male Sprague Dawley rats", "experiment": "Metabolic cage study of rats fed diet containing R2-ADN or adenine (Example 1, Table 1)", "assay_type": "in vivo, rat", "conditions": "for Urine osmolality, Average Baseline / Urine osmolality, Baseline Day 1 / Urine osmolality, Baseline Day 2: baseline before treatment; for Urine osmolality, Day 1: treatment day 1; for Urine osmolality, Day 2: treatment day 2; for Urine osmolality, Day 3: treatment day 3; for Urine osmolality, Day 4: treatment day 4; for Urine osmolality, Day 5: treatment day 5; for Urine osmolality, Day 6: treatment day 6", "from_the_text": "The effects of R2-ADN on these physiologic parameters are dose- and time-dependent.\nIn addition, the effects of adenine (ADN) were compared to those of R2-ADN on these physiologic parameters.\nMale Sprague Dawley rats were placed in metabolic cages and fed powdered rodent chow with access to distilled water ad libitum. After adjustment, baseline data were collected for 2 days and then rats were randomly divided into different groups. […]"}, "[1]": {"system": "water channel aquaporin 2 (AQP2)", "conditions": "rat kidney collecting duct system, high dose; cited from earlier work"}, "salt transporter NKCC2": {"system": "salt transporter NKCC2", "conditions": "rat kidney medullary thick ascending limb, high dose; cited from earlier work"}, "Rats": {"system": "Rats", "experiment": "Metabolic cage study of rats fed diet supplemented with R3-AND or R4-AND (Example 2)", "assay_type": "in vivo, rat", "conditions": "for food intake / water intake / urine volume / urine osmolality: day 4, in diet (R4-ADN at 0.15% weight/weight); for food intake: vs control (FIG. 7A); for water intake: vs control (FIG. 7B); for urine volume: vs control (FIG. 7C); for urine osmolality: vs control (FIG. 7D)"}, "[2]": {"system": "primary human hepatocytes", "conditions": "in vitro; cited from earlier work"}, "45 strains of mice": {"system": "45 strains of mice", "conditions": "single oral dose; cited from earlier work"}, "[3]": {"conditions": "rats of the 0.15% in diet group"}, "[4]": {"conditions": "rats of the 0.20% in diet group"}, "[5]": {"conditions": "rats of the 0.25% in diet group"}, "[6]": {"conditions": "rats, 0.15% in diet, adenine vs R2-ADN"}}, "data": [{"molecule": "Nc1ncnc2nc[nH]c12", "note": "[ADN, adenine]", "values": [{"measurement": "Urine osmolality, Average Baseline", "setting": "Male Sprague Dawley rats; [3]", "value": 1890, "unit": "mosm/kg H2O"}, {"measurement": "Urine osmolality, Baseline Day 1", "setting": "Male Sprague Dawley rats; [3]", "value": 1848, "unit": "mosm/kg H2O"}, {"measurement": "Urine osmolality, Baseline Day 2", "setting": "Male Sprague Dawley rats; [3]", "value": 1933, "unit": "mosm/kg H2O"}, {"measurement": "Urine osmolality, Average Baseline", "setting": "Male Sprague Dawley rats; [4]", "value": 1619, "unit": "mosm/kg H2O"}, {"measurement": "Urine osmolality, Baseline Day 1", "setting": "Male Sprague Dawley rats; [4]", "value": 1638, "unit": "mosm/kg H2O"}, {"measurement": "Urine osmolality, Baseline Day 2", "setting": "Male Sprague Dawley rats; [4]", "value": 1599, "unit": "mosm/kg H2O"}, {"measurement": "Urine osmolality, Average Baseline", "setting": "Male Sprague Dawley rats; [5]", "value": 1529, "unit": "mosm/kg H2O"}, {"measurement": "Urine osmolality, Baseline Day 1", "setting": "Male Sprague Dawley rats; [5]", "value": 1648, "unit": "mosm/kg H2O"}, {"measurement": "Urine osmolality, Baseline Day 2", "setting": "Male Sprague Dawley rats; [5]", "value": 1410, "unit": "mosm/kg H2O"}, {"measurement": "urine osmolality", "setting": "Male Sprague Dawley rats; [6]", "value": "no effect"}, {"measurement": "urine volume / daily water balance", "setting": "Male Sprague Dawley rats; [6]", "value": "no effect"}, {"measurement": "Urine osmolality, Day 1", "setting": "Male Sprague Dawley rats; rats, 0.15% in diet", "value": 1750, "unit": "mosm/kg H2O"}, {"measurement": "Urine osmolality, Day 2", "setting": "Male Sprague Dawley rats; rats, 0.15% in diet", "value": 1752, "unit": "mosm/kg H2O"}, {"measurement": "Urine osmolality, Day 3", "setting": "Male Sprague Dawley rats; rats, 0.15% in diet", "value": 1770, "unit": "mosm/kg H2O"}, {"measurement": "Urine osmolality, Day 4", "setting": "Male Sprague Dawley rats; rats, 0.15% in diet", "value": 1671, "unit": "mosm/kg H2O"}, {"measurement": "Urine osmolality, Day 5", "setting": "Male Sprague Dawley rats; rats, 0.15% in diet", "value": 1700, "unit": "mosm/kg H2O"}, {"measurement": "Urine osmolality, Day 6", "setting": "Male Sprague Dawley rats; rats, 0.15% in diet", "value": 1738, "unit": "mosm/kg H2O"}, {"measurement": "Urine osmolality, Day 1", "setting": "Male Sprague Dawley rats; rats, 0.20% in diet", "value": 1475, "unit": "mosm/kg H2O"}, {"measurement": "Urine osmolality, Day 2", "setting": "Male Sprague Dawley rats; rats, 0.20% in diet", "value": 1371, "unit": "mosm/kg H2O"}, {"measurement": "Urine osmolality, Day 3", "setting": "Male Sprague Dawley rats; rats, 0.20% in diet", "value": 1354, "unit": "mosm/kg H2O"}, {"measurement": "Urine osmolality, Day 4", "setting": "Male Sprague Dawley rats; rats, 0.20% in diet", "value": 1296, "unit": "mosm/kg H2O"}, {"measurement": "Urine osmolality, Day 5", "setting": "Male Sprague Dawley rats; rats, 0.20% in diet", "value": 1279, "unit": "mosm/kg H2O"}, {"measurement": "Urine osmolality, Day 6", "setting": "Male Sprague Dawley rats; rats, 0.20% in diet", "value": 1386, "unit": "mosm/kg H2O"}, {"measurement": "Urine osmolality, Day 1", "setting": "Male Sprague Dawley rats; rats, 0.25% in diet", "value": 1198, "unit": "mosm/kg H2O"}, {"measurement": "Urine osmolality, Day 2", "setting": "Male Sprague Dawley rats; rats, 0.25% in diet", "value": 848, "unit": "mosm/kg H2O"}, {"measurement": "Urine osmolality, Day 3", "setting": "Male Sprague Dawley rats; rats, 0.25% in diet", "value": 976, "unit": "mosm/kg H2O"}, {"measurement": "Urine osmolality, Day 4", "setting": "Male Sprague Dawley rats; rats, 0.25% in diet", "value": 1019, "unit": "mosm/kg H2O"}, {"measurement": "Urine osmolality, Day 5", "setting": "Male Sprague Dawley rats; rats, 0.25% in diet", "value": 938, "unit": "mosm/kg H2O"}, {"measurement": "Urine osmolality, Day 6", "setting": "Male Sprague Dawley rats; rats, 0.25% in diet", "value": 956, "unit": "mosm/kg H2O"}, {"measurement": "AQP2 gene expression and protein abundance", "setting": "[1]", "value": "decreasing the gene expression and protein abundance"}, {"measurement": "NKCC2 gene expression and protein abundance", "setting": "salt transporter NKCC2", "value": "decreasing the gene expression and protein abundance"}]}, {"molecule": "Nc1nc(Cl)nc2nc[nH]c12", "note": "[R2-ADN, 2-chloro-6-aminopurine]", "values": [{"measurement": "potency relative to adenine in effects on water handling / water loss by the kidney", "setting": "Male Sprague Dawley rats; rats", "value": "more potent than adenine"}, {"measurement": "Urine osmolality, Average Baseline", "setting": "Male Sprague Dawley rats; [3]", "value": 1558, "unit": "mosm/kg H2O"}, {"measurement": "Urine osmolality, Baseline Day 1", "setting": "Male Sprague Dawley rats; [3]", "value": 1614, "unit": "mosm/kg H2O"}, {"measurement": "Urine osmolality, Baseline Day 2", "setting": "Male Sprague Dawley rats; [3]", "value": 1502, "unit": "mosm/kg H2O"}, {"measurement": "water intake", "setting": "Male Sprague Dawley rats; rats, 0.075%, 0.15% or 0.25% in diet, 7 days, vs baseline and control, dose- and time-dependent (FIGS. 1A-1D)", "value": "significant increase"}, {"measurement": "urine volume", "setting": "Male Sprague Dawley rats; rats, 0.075%, 0.15% or 0.25% in diet, 7 days, vs baseline and control, dose- and time-dependent (FIGS. 2A-2D)", "value": "significant increase"}, {"measurement": "urine osmolality", "setting": "Male Sprague Dawley rats; rats, 0.075%, 0.15% or 0.25% in diet, 7 days, vs baseline or control, dose- and time-dependent (FIGS. 3A-3D)", "value": "sharp reduction"}, {"measurement": "urine osmolality", "setting": "Male Sprague Dawley rats; [6]", "value": "significantly impaired"}, {"measurement": "urine volume / daily water balance", "setting": "Male Sprague Dawley rats; [6]", "value": "significantly impaired"}, {"measurement": "Urine osmolality, Day 1", "setting": "Male Sprague Dawley rats; rats, 0.15% in diet", "value": 1085, "unit": "mosm/kg H2O"}, {"measurement": "Urine osmolality, Day 2", "setting": "Male Sprague Dawley rats; rats, 0.15% in diet", "value": 625, "unit": "mosm/kg H2O"}, {"measurement": "Urine osmolality, Day 3", "setting": "Male Sprague Dawley rats; rats, 0.15% in diet", "value": 720, "unit": "mosm/kg H2O"}, {"measurement": "Urine osmolality, Day 4", "setting": "Male Sprague Dawley rats; rats, 0.15% in diet", "value": 649, "unit": "mosm/kg H2O"}, {"measurement": "Urine osmolality, Day 5", "setting": "Male Sprague Dawley rats; rats, 0.15% in diet", "value": 657, "unit": "mosm/kg H2O"}, {"measurement": "Urine osmolality, Day 6", "setting": "Male Sprague Dawley rats; rats, 0.15% in diet", "value": 508, "unit": "mosm/kg H2O"}, {"measurement": "reduction in urine osmolality", "setting": "Male Sprague Dawley rats; rats, 0.15% in diet, within the second day of treatment", "value": "~60", "unit": "%"}, {"measurement": "food intake", "setting": "Male Sprague Dawley rats; rats, high dose (0.25%), day 7 of feeding", "value": "significant reduction"}, {"measurement": "food intake", "setting": "Male Sprague Dawley rats; rats, lower doses in diet (FIGS. 4A-4D)", "value": "did not significantly alter"}, {"measurement": "changes in body weight", "setting": "Male Sprague Dawley rats; rats, vs control group (FIGS. 5A-5D)", "value": "impacted the changes in body weight"}]}, {"molecule": "O=C(Nc1ncnc2nc[nH]c12)c1ccccc1", "note": "[R3-AND, N6-benzoyladenine]", "values": [{"measurement": "food intake", "setting": "Rats", "value": "none of the measured parameters"}, {"measurement": "water intake", "setting": "Rats", "value": "none of the measured parameters"}, {"measurement": "urine volume", "setting": "Rats", "value": "none of the measured parameters"}, {"measurement": "urine osmolality", "setting": "Rats", "value": "none of the measured parameters"}]}, {"molecule": "CN(C)c1ncnc2nc[nH]c12", "note": "[R4-ADN, 6-(Dimethylamino) purine]", "values": [{"measurement": "potency relative to adenine in increasing water loss by the kidney", "setting": "Rats", "value": "more potent than adenine"}, {"measurement": "food intake", "setting": "Rats", "value": "significant reduction"}, {"measurement": "water intake", "setting": "Rats", "value": "significant increase"}, {"measurement": "urine volume", "setting": "Rats", "value": "significant increase"}, {"measurement": "urine osmolality", "setting": "Rats", "value": "sharp reduction"}]}, {"molecule": "Cc1ccccc1C(=O)Nc1ccc(C(=O)N2CCCC(O)c3cc(Cl)ccc32)c(C)c1", "note": "(stereo not shown) [tolvaptan]", "values": [{"measurement": "hepatocyte toxicity", "setting": "[2]", "value": "causes mitochondrial-induced apoptosis and oxidative stress"}, {"measurement": "signs of liver injury mechanisms", "setting": "45 strains of mice", "value": "signs of mitochondrial dysfunction, increased oxidative stress, and activation of immune response"}]}]}
